Assay in all cases: Bliss excess, mean over the matrix (fraction); higher = more synergy
Assay [1] has as its system MS751 (Cervical Carcinoma). The method, boiled down: (§1)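 Cell lines grown in DMEM/F12 or RPMI with 10% FBS were plated in 1536-well plates and held 24 hours at 37°C, 5% CO2 before 72 hours of exposure to two-drug dose matrices, with DMSO typically at 0.2%. CellTiter-Glo 2.0 luminescence gave viability, which was converted to inhibition. Vehicle wells were set to 0 and blank wells to 1. Combination Emax is the second-highest inhibition in the matrix, and Bliss excess is the observed combination effect minus the expected EA + EB − EA·EB, where EA and EB are the single-agent effects.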

Assay [2] relates to GR-ST (B-Lymphoblastic Leukemia). An outline of the steps: as §1
The test system of assay [3] is KCL-22 (Chronic Myelogenous Leukemia). The method, boiled down: as §1
In assay [4] the test system is HL-60 (Acute Myeloid Leukemia). An outline of the steps:
as §1

For assay [5], the system named is P12-ICHIKAWA (T-Lymphoblastic Leukemia). The method, boiled down: as §1
For assay [6], the system named is L-540 (Hodgkin's Lymphoma). The method, boiled down:
as §1

The subject of assay [7] is K-562 (Chronic Myelogenous Leukemia). The method, boiled down:
as §1

Assay [8] deals with ES8 (Ewing's Sarcoma). The method, boiled down:
as §1

The test system of assay [9] is ES1 (Ewing's Sarcoma). The method, boiled down: as §1
Assay [10] has as its system EVSA-T (Breast Carcinoma). The method, boiled down: as §1
The subject of assay [11] is HDQ-P1 (Breast Carcinoma). The method, boiled down: as §1
The subject of assay [12] is KARPAS-45 (T-Lymphoblastic Leukemia). An outline of the steps:
as §1

The test system of assay [13] is SW837 (Colorectal Carcinoma). The method, boiled down:
as §1

Assay [14] deals with WM-115 (Melanoma). An outline of the steps: as §1
Assay [15] concerns NCI-H2818 (Mesothelioma). An outline of the steps: as §1
The subject of assay [16] is U251 (Low Grade Glioma). The method, boiled down: as §1
In assay [17] the test system is BFTC-905 (Bladder Carcinoma). The method, boiled down:
as §1

Assay [18] deals with MOLT-16 (T-Lymphoblastic Leukemia). An outline of the steps:
as §1

Assay [19] deals with SU-DHL-8 (B-Cell Non-Hodgkin's Lymphoma). The method, boiled down:
as §1

The test system of assay [20] is SR (Other Blood Carcinomas). The method, boiled down:
as §1

Three molecules from the supplement of paper PMC11061612 can be followed below.

`CS(=O)(=O)CCNCc1ccc(-c2ccc3ncnc(Nc4ccc(OCc5cccc(F)c5)c(Cl)c4)c3c2)o1` [Lapatinib] + C[C@@H](Oc1cc(-c2cnn(C3CCNCC3)c2)cnc1N)c1c(Cl)ccc(F)c1Cl [Crizotinib] (first compound max 10 µM, 7x7, partner max 10 µM): the Bliss excess is 0.0207 in assay [1]; -0.025 in [2]; 0.0178 in [3]; 0.019 in assay [4]; -0.0077 in assay [5]; -0.0731 in assay [6]. In addition, the Bliss excess in assay [7] was -0.0453; in [8], -0.0424; in assay [9], -0.0346; in assay [10], -0.0359; in assay [11], -0.0144; in assay [12] it was 0.0044. For the same molecule, the Bliss excess is -0.0345 in assay [13]; -0.0237 in assay [14]; -0.0019 in assay [15]; -0.0586 in assay [16]; -0.0525 in assay [17]; 0.0062 in [18]. Moreover, the Bliss excess was 0.0546 in [19] and 0.019 in assay [20].
For the molecule `COc1cc2ncnc(Nc3ccc(F)c(Cl)c3)c2cc1OCCCN1CCOCC1` [Gefitinib] + CC(C)n1c(=O)n(C)c2cnc3cc(F)c(-c4ccc(OCCCN5CCCCC5)nc4)cc3c21 [AZD1390] (first compound max 10 µM, 7x7, partner max 0.3 µM), the Bliss excess in [1] was -0.0614; in [2], -0.0303; in assay [3], -0.0573; in assay [4], -0.0852; in assay [5], -0.0152; in [6] it was -0.0591. The Bliss excess in assay [7] is -0.0304; in assay [8], -0.0364; in assay [9] it was -0.0432; in assay [10], -0.0306; in assay [11] it was -0.114; in assay [12], -0.0543. Also, the Bliss excess in assay [13] is -0.06; in assay [14], -0.0856; in [15], -0.0707; in assay [16] it was -0.0624; in assay [17], -0.0821; in [18], -0.0401. Moreover, the values for the Bliss excess in [19] and in assay [20] were -0.0157 and -0.0109, respectively.
Turning to `CN(CCO)CC[C@H](CSc1ccccc1)Nc1ccc(S(=O)(=O)NC(=O)c2ccc(N3CCC([C@@H](O)c4ccccc4-c4ccc(Cl)cc4)CC3)cc2)cc1S(=O)(=O)C(F)(F)F` [AZD4320] + CN(C)CCCOc1ccc(-c2ccc3ncc4c(c3c2)n(C2CCOCC2)c(=O)n4C)cn1 [AZD0156] (first compound max 1 µM, 7x7, partner max 1 µM), the Bliss excess in assay [1] is -0.0248; in assay [2], -0.0358; in assay [3] it was 0.0373; in assay [4], 0.0228; in [5], 0.024; in [6] it was 0.0178. Further, the Bliss excess in assay [7] is -0.0027; in assay [8], 0.0079; in [9], -0.0129; in assay [10] it was -0.0125; in [11] it was -0.03; in assay [12], -0.0326. The Bliss excess in assay [13] was -0.0322; in assay [14], -0.0469; in assay [15], -0.0501; in assay [16], -0.0374; in [17], -0.017; in [18], -0.0592. Also, the Bliss excess in [19] was -0.044; in [20], 0.0454.
